Laboratory results reported in US11109588B2, “Stable liquid formulations and methods of using the same” (priority 2019, dated 2021).

Experiment: Storage stability of liquid compositions in a sealed container, 8 weeks at 40° C., loss by HPLC
Format: physicochemical
Details: inert ingredients of Composition #7 of Table 3, aged 8 weeks at 40° C.

COC(=O)c1sccc1S(=O)(=O)NC(=O)Nc1nc(C)nc(OC)n1 [Thifensulfuron-methyl, thifensulfuron-methyl]
relative loss of thifensulfuron-methyl: less than 5 % w/w
